Experimental data published in ChEMBL document CHEMBL1135155, “Optimization of the beta-aminoester class of factor Xa inhibitors. Part 2: Identification of FXV673 as a potent and selective inhibitor with excellent In vivo anticoagulant activity” (Bioorg Med Chem Lett, 2002).

What was measured:
Serine protease 1 = Serine protease 1 (Homo sapiens, UniProt P07477); assay: In vitro inhibitory potency against Trypsin
Prothrombin = Prothrombin (Homo sapiens, UniProt P00734); assay: Inhibition of Coagulation factor IIa
Coagulation factor X = Coagulation factor X (Homo sapiens, UniProt P00742); assay: Inhibition of Coagulation factor Xa
Chain of Coagulation factor X (P00742 41-179 limits assumed): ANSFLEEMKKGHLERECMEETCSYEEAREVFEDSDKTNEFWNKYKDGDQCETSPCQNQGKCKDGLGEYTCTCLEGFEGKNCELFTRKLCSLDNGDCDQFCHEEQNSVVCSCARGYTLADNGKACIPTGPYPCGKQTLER
Chain of Coagulation factor X (P00742 235-488 limits assumed): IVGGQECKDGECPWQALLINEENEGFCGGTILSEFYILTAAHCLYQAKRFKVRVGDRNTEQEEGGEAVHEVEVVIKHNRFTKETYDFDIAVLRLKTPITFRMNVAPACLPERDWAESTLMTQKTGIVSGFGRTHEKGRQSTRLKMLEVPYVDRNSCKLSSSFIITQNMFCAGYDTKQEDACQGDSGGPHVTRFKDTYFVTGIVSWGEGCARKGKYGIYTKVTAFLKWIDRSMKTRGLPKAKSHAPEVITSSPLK

[1] = Selectivity ratio as Ki of Serine proteases tissue plasminogen activator / Ki of factor Xa
Rattus norvegicus [2] = species: Rattus norvegicus; assay: Concentration at which compound inhibited coagulation of rat plasma in vitro, doubling activated partial thromboplastin time (APTT); type: functional, cell-free
[3] = target: Thrombin and coagulation factor X (Homo sapiens) (UniProt P00734+P00742); assay: Selectivity ratio as Ki of factor IIA / Ki of factor Xa; type: protein assay
Chain of Thrombin and coagulation factor X (Homo sapiens) (P00742 whole entry, looked up, other chains not shown): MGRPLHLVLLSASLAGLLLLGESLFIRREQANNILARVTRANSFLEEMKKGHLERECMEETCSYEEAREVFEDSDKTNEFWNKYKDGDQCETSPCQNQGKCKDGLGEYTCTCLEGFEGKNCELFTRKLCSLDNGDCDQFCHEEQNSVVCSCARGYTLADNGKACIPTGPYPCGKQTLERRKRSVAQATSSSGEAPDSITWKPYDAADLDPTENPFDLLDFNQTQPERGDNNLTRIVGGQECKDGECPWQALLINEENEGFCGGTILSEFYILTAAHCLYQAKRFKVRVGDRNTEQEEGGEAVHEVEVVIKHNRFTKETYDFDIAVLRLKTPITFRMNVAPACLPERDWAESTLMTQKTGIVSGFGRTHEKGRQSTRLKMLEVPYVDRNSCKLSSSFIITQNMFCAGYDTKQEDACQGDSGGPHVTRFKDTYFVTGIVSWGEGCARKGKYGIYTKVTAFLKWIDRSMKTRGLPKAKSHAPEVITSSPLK

[4] = Selectivity ratio as Ki of Trypsin / Ki of factor Xa
[5] = Selectivity ratio as Ki of Activated protein C / Ki of factor Xa
Rattus norvegicus [6] = species: Rattus norvegicus; assay: Tested for maximal effective dose in ferrous-chloride induced arterial thrombosis by bolus infusion; type: functional; conditions: read-out: MED
Rattus norvegicus [7] = assay: Tested for maximal effective dose in ferrous-chloride induced arterial thrombosis by intravenous maintenance infusion; type: functional
Homo sapiens = species: Homo sapiens; assay: Concentration at which compound inhibited coagulation of human plasma in vitro, doubling activated partial thromboplastin time (APTT); type: functional, cell-free

Chain of Serine protease 1 (P07477 whole entry): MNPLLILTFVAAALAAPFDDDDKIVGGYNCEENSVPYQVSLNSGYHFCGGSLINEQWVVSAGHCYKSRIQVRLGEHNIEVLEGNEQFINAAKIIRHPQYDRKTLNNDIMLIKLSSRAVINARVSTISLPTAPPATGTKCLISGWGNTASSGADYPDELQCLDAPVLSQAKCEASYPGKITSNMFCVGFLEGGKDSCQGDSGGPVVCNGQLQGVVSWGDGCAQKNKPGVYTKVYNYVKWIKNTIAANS

| Ki (Serine protease 1) | Ki (Prothrombin) | Ki (Coagulation factor X) | SMILES | further results |
| --- | --- | --- | --- | --- |
| > 2900 nM | > 4000 nM | 6 nM | COC(=O)[C@H](Cc1cccc(C(=N)N)c1)[C@@H](C)NC(=O)c1ccc(-n2ccnc2)cc1 |  |
| 490 nM | > 4000 nM | 46 nM | COC(=O)[C@H](Cc1cccc(C(=N)N)c1)[C@@H](C)NC(=O)c1ccc(-c2ncc[nH]2)cc1 |  |
| 168 nM | > 4000 nM | 2.7 nM | COC(=O)[C@H](Cc1cccc(C(=N)N)c1)[C@@H](C)NC(=O)c1ccc(-c2cc[n+](C)cc2)cc1 |  |
| 51 nM | 2800 nM | 0.89 nM | COC(=O)[C@H](Cc1cccc(C(=N)N)c1)[C@@H](C)NC(=O)c1ccc(-c2ccccn2)cc1 |  |
| 76 nM | > 4000 nM | 0.5 nM | COC(=O)[C@H](Cc1cccc(C(=N)N)c1)[C@@H](C)NC(=O)c1ccc(-c2ccncc2)cc1 |  |
| 52 nM | > 4000 nM | 0.8 nM | COC(=O)[C@H](Cc1cccc(C(=N)N)c1)[C@@H](C)NC(=O)c1ccc(-c2ccc[n+](C)c2)cc1 |  |
| 36 nM | > 4000 nM | 1.2 nM | COC(=O)[C@H](Cc1cccc(C(=N)N)c1)[C@@H](C)NC(=O)c1ccc(-c2cccc[n+]2C)cc1 |  |
| 301 nM | > 4000 nM |  | COC(=O)[C@H](Cc1cccc(C(=N)N)c1)[C@@H](C)NC(=O)c1ccc(-c2cc[n+]([O-])cc2)cc1 [OTAMIXABAN] | Ratio [1]: > 10000; Concentration (Rattus norvegicus [2]): 0.8 µM; Ratio [3]: > 10000; Ratio [4]: 750; Ratio [5]: > 10000; minimal effective dose (Rattus norvegicus [6]): 0.05 mg/kg; MED (Rattus norvegicus [7]): 5 µg/min/kg; Concentration (Homo sapiens): 0.41 µM |
|  | 3250 nM |  | COC(=O)[C@H](Cc1cccc(C(=N)N)c1)[C@@H](C)NC(=O)c1ccc(-c2ccccc2)cc1 | Ratio [1]: > 1000; Concentration (Rattus norvegicus [2]): 5.1 µM; Ratio [3]: 610; Ratio [4]: 13; Ratio [5]: > 1000; Concentration (Homo sapiens): 3.9 µM |
| 368 nM | 4000 nM | 8 nM | COC(=O)[C@H](Cc1cccc(C(=N)N)c1)[C@@H](C)NC(=O)c1ccc(-c2cccnc2)cc1 |  |
| 170 nM | > 4000 nM | 3 nM | COC(=O)[C@H](Cc1cccc(C(=N)N)c1)[C@@H](C)NC(=O)c1ccc(-c2c[nH]cn2)cc1 |  |
| 130 nM | > 4000 nM | 2 nM | COC(=O)[C@H](Cc1cccc(C(=N)N)c1)[C@@H](C)NC(=O)c1ccc(-c2ccc[n+]([O-])c2)cc1 |  |
| 36 nM | > 4000 nM | 0.58 nM | COC(=O)[C@H](Cc1cccc(C(=N)N)c1)[C@@H](C)NC(=O)c1ccc(-c2cccc[n+]2[O-])cc1 |  |
